These results are taken from patent publication US6596873B1, “2-and 2,5-substituted phenylketoenols” (Bayer Aktiengesellschaft, priority 1996, dated 2003).

Holding throughout (assay type): in vivo
For assay [1], the system named is caterpillars of the owlet moth (Spodoptera frugiperda). Put plainly: Spodoptera test. The note with it: active compound concentration of 0.1%, after 7 days; cabbage leaves dipped. Here is the method: To produce a suitable preparation of active compound, 1 part by weight of active compound is mixed with the stated amount of solvent and the stated amount of emulsifier, an d the concentrate is diluted with water to the d esired concentration.
Cabbage leaves (Brassica oleracea) are treated by being dipped into the preparation of the active compound of the desired concentration and are infested with caterpillars of the owlet moth (Spodoptera frugiperda) as long, as the leaves are still moist.
After the specified period of time, the destruction in % is determined. 100% means that all the caterpillars have been killed; 0% means that none of the caterpiliars have been killed.

The subject of assay [2] is larvae of the green rice leaf hopper (Nephotettix cincticeps). Kind of assay: Nephotettix test. Conditions: active compound concentration of 0.1%, after 6 days; rice seedlings dipped. As to the method:
Nephotettix Test [table] To produce a suitable preparation of active compound, 1 part by weight of active compound is mixed with the stated amount of solvent and the stated amount of emulsifier, and the concentrate is diluted with water to the desired concentration. Rice seedlings (Oryzae sativa) are treated by being dipped into the preparation of the active compound of the desired concentration and are infested with larvae of the green rice leaf hopper (Nephotettix cincticeps) while the seedlings are still moist. After the specified period of time, the destruction in % is determined. 100% means that all the larvae have been killed; 0% means that none of the larvae have been killed.

Assay [3] concerns mustard beetle larvae (Phaedon cochleariae). Put plainly: Phaedon larvae test. The note with it: active compound concentration of 0.1%, after 7 days; cabbage leaves dipped. Here is the method:
Phaedon Larvae Test [table] To produce a suitable preparation of active compound, 1 part by weight of active compound is mixed with the stated amount of solvent and the stated amount of emulsifier, and the concentrate is diluted with water to the desired concentration. Cabbage leaves (Brassica oleracea) are treated by being dipped into the preparation of the active compound of the desired concentration and are infested with mustard beetle larvae (Phaedon cochleariae) while the leaves are still moist. After the specified period of time, the destruction in % is determined. 100% means that all the beetle larvae have been killed; 0% means that none of the beetle larvae have been killed.

Assay [4] relates to fruit tree spider mite (Panonychus ulmi). Kind of assay: Panonychus test. The note with it: active compound concentration of 0.004%, after 7 days; plum trees sprayed. Here is the method: Panonychus Test [table] To prepare a suitable preparation of active compound, 1 part by weight of active compound is mixed with the stated amount of solvent and the stated amount of emulsifier, and the concentrate is diluted with water to the desired concentration. Plum trees (Prunus domestica) approximately 30 cm in height which are severely infested by all stages of the fruit tree spider mite (Panonychus ulmi) are sprayed with an active compound preparation of the desired concentration. After the specified period of time, the destruction in % is determined. 100% means that all the spider mites have been killed; 0% means that none of the spider mites have been killed.

For assay [5], the system named is caterpillars of the diamond-back moth (Plutella maculipennis). Kind of assay: Plutella test. The note with it: active compound concentration of 0.1%, after 7 days; cabbage leaves dipped. Here is the method: Plutella Test [table] To produce a suitable preparation of active compound, 1 part by weight of active compound is mixed with the stated amount of solvent and the stated amount of emulsifier, and the concentrate is diluted with water to the desired concentration. Cabbage leaves (Brassica oleracea) are treated by being dipped into the preparation of active compound of the desired concentration and are infested with caterpillars of the diamond-back moth (Plutella maculipennis) while the leaves are still moist. After the specified period of time, the destruction in % is determined. 100% means that all the caterpillars have been killed, 0% means that none of the caterpillars have been killed.

Turning to `Cc1ccccc1C1=C(O)C2(CCC(C)CC2)NC1=O` (centres unmarked) [Example I-1-a-1], the destruction in % in assay [1] came to 85%; in assay [2], 100%; in assay [3], 100%.
As to `CC(C)(C)C(=O)OC1=C(c2ccccc2Cl)C(=O)OC12CCCCC2` [Example I-2-b-1], in assay [4], the “efficacy (destruction in %)” value was found to be 100%.
In the case of `Cc1ccccc1-c1c(O)c(C)c(-c2ccccn2)oc1=O` [Example I-4-a-1], the destruction in % came out at 85% in assay [1], 100% in assay [2], 100% in assay [3] and 100% in assay [5].
